From ChEMBL document CHEMBL3886774, “Bicyclic substituted pyrimidine compounds” (2016) come the findings set out here.

Some results are limits rather than exact numbers.

Experiment [1] has as its target cGMP-specific 3',5'-cyclic phosphodiesterase (Homo sapiens, UniProt O76074). The experiment in a line: The maximum final concentration of the compound was 10 μM. The plate was incubated at 30° C. for 1 h, and 20 μL of 70 μM EDTA was then added to stop the reaction. 26 μL of solution of each well was transferred to a 384-well plate.
The target of experiment [2] is Dual 3',5'-cyclic-AMP and -GMP phosphodiesterase 11A (Homo sapiens, UniProt Q9HCR9). The experiment in a line: Caliper Mobility-Shift Assay: To a 96-well plate, 20 μL of 10 μM FL-cGMP as the substrate was added; then 1 μL solution of the compound in DMSO or DMSO solution without compound was added; and then 29 μL of 0.28 ng/μL PDE-11 enzyme buffer (100 mM Hepes pH 7.5, 5 mM MgCl2, 0.002% Brij-35) was added. The maximum final concentration of the compound was 10 μM. The plate was incubated at 30° C. for 1 h, and 20 μL of 70 μM EDTA was then added to stop the reaction. 26 μL of solution of each well was transferred to a 384-well plate.
Chain of Dual 3',5'-cyclic-AMP and -GMP phosphodiesterase 11A (Q9HCR9 whole entry): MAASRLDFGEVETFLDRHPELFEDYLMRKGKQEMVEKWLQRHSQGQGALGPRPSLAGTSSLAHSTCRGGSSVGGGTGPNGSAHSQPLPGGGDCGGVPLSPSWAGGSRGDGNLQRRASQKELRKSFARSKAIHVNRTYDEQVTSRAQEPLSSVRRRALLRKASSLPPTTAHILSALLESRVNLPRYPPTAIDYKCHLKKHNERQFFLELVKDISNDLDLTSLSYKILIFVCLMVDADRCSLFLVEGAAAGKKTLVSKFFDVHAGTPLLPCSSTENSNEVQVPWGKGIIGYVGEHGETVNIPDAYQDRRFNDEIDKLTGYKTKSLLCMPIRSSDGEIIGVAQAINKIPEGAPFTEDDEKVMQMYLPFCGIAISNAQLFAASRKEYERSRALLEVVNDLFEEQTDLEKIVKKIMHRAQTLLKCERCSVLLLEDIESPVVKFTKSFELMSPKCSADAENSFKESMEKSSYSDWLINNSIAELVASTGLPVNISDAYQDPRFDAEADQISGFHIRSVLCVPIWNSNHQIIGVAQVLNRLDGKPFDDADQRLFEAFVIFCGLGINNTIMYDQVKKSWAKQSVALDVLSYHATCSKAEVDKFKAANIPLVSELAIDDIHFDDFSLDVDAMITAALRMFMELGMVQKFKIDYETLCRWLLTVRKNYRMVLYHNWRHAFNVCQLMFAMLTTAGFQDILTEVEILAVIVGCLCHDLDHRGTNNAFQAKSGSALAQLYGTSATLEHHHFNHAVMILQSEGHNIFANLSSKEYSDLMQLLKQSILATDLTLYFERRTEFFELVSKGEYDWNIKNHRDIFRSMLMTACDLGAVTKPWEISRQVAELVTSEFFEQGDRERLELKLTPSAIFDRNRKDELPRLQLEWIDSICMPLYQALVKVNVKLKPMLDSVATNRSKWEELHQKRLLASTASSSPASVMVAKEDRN

In the case of `COc1ccc(CNc2nc(N3CC4CC4C3)ncc2C(=O)NCc2ccccn2)cc1Cl` (configuration not stated), the IC50 in experiment [1] is 2.12 nM; in experiment [2] it was over 10000 nM.

For orientation: IC50 means the midpoint of a concentration-inhibition curve.
